These results are taken from patent US20060122107A1 (Monash University, priority 2002, published 2006).

Entries after “also recorded” stand apart in the source; their conditions may differ. Read-outs that look alike come from different tables or passages of the source.

One data set in a line: Serum stability assay. Format: in vitro ADME, mouse. As to conditions: for remaining at 2 h, 0.091 mg/ml: male. Here is the method:
10 μL of an aqueous peptide solution containing 1 mg/ml peptide was added to 100 μl of 20% mouse serum (From adult male BL6 mice), and incubated at 37° C. for 0 min, 2 hrs and 12 hrs. At each time point samples were taken and serum proteins removed by precipitation through the addition of 40 μl of 15% TCA. Samples were stored at 4° C. for 30 min and centrifuged. Supernatants were then removed and kept on ice. 50 μl of each supernatant was analysed by RP-HPLC using 0.1% TFA in water (eluent A) and 0.09% TFA in 60% aqueous acetonitrile (eluent B) and the following gradient.
The column was a Pharmacia μRPC octadecyl silica column of […] nominal particle size and 300 Å pore size. The flow rate was 200 μl/min and UV detection was used at 214 nm, 254 nm and 280 nm. Values are given as area of peptide peak (214 nm). Peptide amounts at T=0 min were used as 100%. Peptide digests were fractionated and Electrospray ionisation (ESI) Ion Trap Mass spectrometry was used to characterise the fragmentation pattern of SIINFEKL and selected β-amino acid analogues.
Since β-amino acids are resistant to proteolysis, the influence of peptide modification on stability against proteolysis was tested by monitoring the degradation of the peptides in mouse blood serum. Degradation kinetics were followed by reverse phase-HPLC (RP-HPLC) analysis using corresponding peak area for peptide quantification. The parental SIINFEKL peptide was degraded rapidly, with only 5% of the peptide being recovered after 2 hrs. For the βC3-analogues, the amount of degradation was highly dependent on the position of the substitution. Limited stabilisation occurred for peptides with substitutions at P3 and P4 with 8% and 7% recovery respectively (FIG. 11). For the substitution at P1, 10% of the initial peak was recovered. […] For β-Phe at P5 and β-Leu at P8 over 25% of the initial peak was recovered after 2 hrs.

Data set [1] addresses MHC Class I H2-K^b on cells (mouse). Kind of data set: flow cytometry on RMA-S cells, with against without exogenous peptide. A general note: A flow cytometer gives signals particle by particle.
Data set [2] is described as follows: 20% mouse serum (From adult male BL6 mice). As to conditions: 37° C., up to 12 hrs.
The target in a further data set is HLA-A2 (Homo sapiens, UniProt P04439, D140Y/D185E/D98H/E176V/E277Q/G131W/G231S/I119V/I121R/I166T/I218V/L300P/L318F/N151K/N90K/P208A/P217A/Q86G/Q94H/R138H/R169H/T345S). Conditions: cited from earlier work.
Another data set has as its system CD8^+ T cell response. Conditions: mixture of peptides intradermally, patients bearing NY-ESO^+ tumors; cited from earlier work.
Data set [3] in a line: construct that expresses an ER-targeted ESO157-167.
The next data set concerns CTL clone HSV2.3. Put plainly: T-hybrid CTL recognition assay (IL-2 bioassay), control clone HSV2.3. The format is cell-based, mouse. The source says:
(§1) The SIINFEKL/K^b-restricted CD8^+ CTL clones B3.1, GA4.2 (Nikolic-Zugic, J., and Carbone F. R. (1990). The effect of mutations in the MHC Class I peptide binding groove on the cytotoxic T lymphocyte recognition of the Kb restricted ovalbumin determinant. Eur. J. Immunol. 20:2431), 149.13.13, 149.42.12 (Clark S. R., Barnden M., Kurts C., Carbone F. R., Miller J. F., Heath J. R. Characterization of the ovalbumin-specific TCR transgenic line OT-I: MHC elements for positive and negative selection. Immunol Cell Biol. April 2000;78(2): 110-7), and the herpes simplex viral specific clone HSV2.3 (Wallace, M. E., Keating, R., Heath, W R., Carbone, F. R. 1999. […]
(§2) CTLL-2 cells were grown to ˜5×10^5 cell per ml then washed 3 times in media containing no exogenous IL-2. […] Once dry, scintillation fluid (Packard Biosciences, Melbourne) was added, then counted on a TopCount scintillation counter (Packard Biosciences, Melbourne).
(§3) CTL clones (expressing different TCR Vβ/Vα segments) restricted by the H2-K^b molecule, and specific to the SIINFEKL peptide were tested for their ability to recognise the various βC3-amino acid substituted analogues (Table X). […] CTTL-2 proliferation is then measured by 3H-Thymydine incorporation and counted on a scintillation counter.

Data set [4] deals with SIINFEKL/K^b-restricted CD8^+ CTL clones. Kind of data set: T-hybrid CTL recognition assay (IL-2 bioassay), panel of clones. The format is cell-based, mouse. Conditions: 1 μM peptide pulsed on I-3 cells.
Text: as §1, §2, §3

In data set [5] the target is H2-K^b complex with Peptide 2 (βC3-Ser at P1) on cells (mouse). Put plainly: RMA-S stabilisation assay with 25-D1.16, flow cytometry.
The target in data set [6] is H2-K^b complex with Peptide 4 (βC3-Ile at P3) on cells (mouse). The data set is described as above.
Setting [7] is: BL6, 20% mouse serum, 37° C., RP-HPLC peak area 214 nm, read-out: peptide recovered after 2 hrs.

For `CC[C@H](C)[C@H](NC(=O)[C@@H](NC(=O)[C@@H](N)CO)[C@@H](C)CC)C(=O)N[C@@H](CC(N)=O)C(=O)N[C@@H](Cc1ccccc1)C(=O)N[C@@H](CCC(=O)O)C(=O)N[C@@H](CCCCN)C(=O)N[C@@H](CC(C)C)C(=O)O` [Peptide 1, SIINFEKL, reference compound], in “Serum stability assay” (setting [7]), the remaining at 2 h, 0.091 mg/ml was determined as 5%. The “serum cleavage sites (MS of fragments)” value in “Serum stability assay” (mouse serum) was “S*I*I*NF*E*KL”.
Take `CC[C@H](C)[C@H](NC(=O)CC(N)CO)C(=O)N[C@H](C(=O)N[C@@H](CC(N)=O)C(=O)N[C@@H](Cc1ccccc1)C(=O)N[C@@H](CCC(=O)O)C(=O)N[C@@H](CCCCN)C(=O)N[C@@H](CC(C)C)C(=O)O)[C@@H](C)CC` (stereo partly drawn) [Peptide 2]: the remaining at 2 h, 0.091 mg/ml in “Serum stability assay” (setting [7]) turned out to be 10%.
For `CCC(C)C(CC(=O)N[C@H](C(=O)N[C@@H](CC(N)=O)C(=O)N[C@@H](Cc1ccccc1)C(=O)N[C@@H](CCC(=O)O)C(=O)N[C@@H](CCCCN)C(=O)N[C@@H](CC(C)C)C(=O)O)[C@@H](C)CC)NC(=O)[C@@H](N)CO` (stereo partly drawn) [Peptide 3], the “resistance to proteolytic degradation” value in the data set “Serum stability assay” was “significant resistance”.
With `CCC(C)C(CC(=O)N[C@@H](CC(N)=O)C(=O)N[C@@H](Cc1ccccc1)C(=O)N[C@@H](CCC(=O)O)C(=O)N[C@@H](CCCCN)C(=O)N[C@@H](CC(C)C)C(=O)O)NC(=O)[C@@H](NC(=O)[C@@H](N)CO)[C@@H](C)CC` (stereo partly drawn) [Peptide 4], in the data set “Serum stability assay”, the “serum cleavage sites (MS of fragments)” value is recorded as “no cleavage at the P2-P3 bond”. In “Serum stability assay” (BL6, mouse, serum), this molecule displayed a remaining at 2 h, 0.091 mg/ml of 8%.
`CC[C@H](C)[C@H](NC(=O)[C@@H](NC(=O)[C@@H](N)CO)[C@@H](C)CC)C(=O)NC(CC(N)=O)CC(=O)N[C@@H](Cc1ccccc1)C(=O)N[C@@H](CCC(=O)O)C(=O)N[C@@H](CCCCN)C(=O)N[C@@H](CC(C)C)C(=O)O` (stereo partly drawn) [Peptide 5]: the remaining at 2 h, 0.091 mg/ml in the data set “Serum stability assay” (BL6, mouse, serum) came out at 7%.
Turning to `CC[C@H](C)[C@H](NC(=O)[C@@H](NC(=O)[C@@H](N)CO)[C@@H](C)CC)C(=O)N[C@@H](CC(N)=O)C(=O)NC(CC(=O)N[C@@H](CCC(=O)O)C(=O)N[C@@H](CCCCN)C(=O)N[C@@H](CC(C)C)C(=O)O)Cc1ccccc1` (stereo partly drawn) [Peptide 6, SIINβFEKL], in the data set “Serum stability assay”, the “full peptide at t=12 hrs” value is on record as “disappeared” and the “serum cleavage sites (MS of fragments)” value is on record as “cleavage did not occur after the P5 amino acid”. The remaining at 2 h, 0.091 mg/ml in the data set “Serum stability assay” (BL6, mouse, serum) is over 25%.
Take `CC[C@H](C)[C@H](NC(=O)[C@@H](NC(=O)[C@@H](N)CO)[C@@H](C)CC)C(=O)N[C@@H](CC(N)=O)C(=O)N[C@@H](Cc1ccccc1)C(=O)N[C@@H](CCC(=O)O)C(=O)N[C@@H](CCCCN)C(=O)NC(CC(=O)O)CC(C)C` (stereo partly drawn) [Peptide 8, SIINFEKβL]: the remaining at 2 h, 0.091 mg/ml in “Serum stability assay” (setting [7]) is over 25%. Besides, the “resistance to proteolytic degradation” value in the data set “Serum stability assay” (mouse serum, 2 hrs, listed as P8) is listed as “significant resistance; also recorded: most stable”.
As for H2-K^b specific monoclonal antibody Y-3, in data set [1], the fold increase in surface K^b staining with exogenous peptide stood at 50 fold.
On to SIINFEKL, for which the cleaved bond result in [2] is listed as “S-I, 2 hrs; also recorded: I-N, 2 hrs; also recorded: F-E, 2 hrs; also recorded: E-K, 2 hrs”.
Turning to SLLMWITQC [ESO157-165], in the data set with HLA-A2, the “binding to HLA-A2” value is “poor binding”. For the same molecule, the “CD8^+ T cell response after peptide vaccination” value in the data set on CD8^+ T cell response was “later and at a lower level”.
Regarding SLLMWITQCFL, the fragment found entry in data set [3] was “ESO157-165; also recorded: ESO159-167”.
For the molecule “SLLMWITQCFL [ESO157-167, NY-ESO 157-167 HLA-A*0201-restricted determinant]”, the “CD8^+ T cell response after peptide vaccination” value with CD8^+ T cell response is on record as “vigorous”.
Consider “SSIEFARL [peptide recognised by the Herpes Simplex Virus specific control clone HSV2.3]”, for which the “recognition by control clone HSV2.3” value in the data set on CTL clone HSV2.3 was “mainly mediated”. Moreover, the “CTL recognition by the clones” value in data set [4] is given as “not recognised”.
With Ser Ile Ile Asn β^c3Phe Glu Lys Leu, in data set [2], the not cleaved result is listed as “At t=12 hrs the full peptide has disappeared leaving only fragments”.
On to Ser Ile β^c3Ile Asn Phe Glu Lys Leu, for which the not cleaved result in data set [2] is listed as “At t=2 hrs most of the full peptide has disappeared”.
On to monoclonal antibody 25-D1.16, for which the fold increase in peptide concentration to reach the same level of recognition as SIINFEKL in data set [5] and in [6] was 100 fold throughout.
